± gives the expanded uncertainty stated by the source.
Tests used:
[1] = Crystal; Adiabatic calorimetry
[2] = Molar enthalpy of transition or fusion; details: Crystal; Adiabatic calorimetry

With `CCC` [propane] the Triple point temperature [1] was 85.53 ± 0.039 K and the “Molar enthalpy of transition or fusion” value [2] was 0.838 ± 0.00956 kcal/mol.

Source: the NIST ThermoML archive (doi:10.1021/je900137r)
